From PubChem BioAssay AID1963981 (Molecular Pharmacology Branch, DTP, NCI, 2024)

Test system: 354836-022-R-J1-PDC multicell spheroid viability
Experiment: Anticancer human tumor 354836-022-R-J1-PDC patient-derived head and neck squamous cell carcinoma cell line growth inhibition [PI3K]
Conditions: for IC50: curve of first compound; for viability, T/C: stronger effect = lower value
Description: Combinatorial screen of targeted agents with the PI3K inhibitors inavolisib, alpelisib, duvelisib, and copanlisib in multi-cell type tumor spheroids
A high-throughput screen of multi-cell type tumor spheroids was designed to identify active combinations of targeted small molecules and PI3K pathway inhibitors. Complex spheroids include a stromal component modeled by human endothelial cells (HUVEC) and fibroblasts modeled by human mesenchymal stem cells (MSCs). The concentration ranges selected for each drug and investigational agent were based upon clinically achievable concentrations if the clinical Cmax of the agent was known.
Compounds. The drugs and investigational agents: inavolisib (NSC800729), alpelisib (NSC765974), duvelisib (NSC772469), copanlisib (NSC816437), ipatasertib (NSC767898), afuresertib (NSC778305), talazoparib (NSC767125), sapanisertib (NSC764658), selumetinib (NSC741078), tovorafenib (DAY101, NSC766906), vemurafenib (NSC761431), ravoxertinib (NSC781343), sotorasib (NSC818433), MRTX1133 (NSC 836407), abemaciclib (NSC 768073), palbociclib (NSC758247), venetoclax (NSC 766270), SY5609 (NSC837396), enzalutamide (NSC755605), and darolutamide (NSC825331), were obtained from the National Cancer Institute (NCI) Developmental Therapeutics Program Chemical Repository. The FDA-approved anticancer drug set is available from the NCI Developmental Therapeutics Program. […] The stock solutions were prepared in dimethyl sulfoxide (DMSO, Sigma-Aldrich, St. Louis, MO, cat. D2650) at 800-fold the tested concentration and stored at -70 degrees C prior to their use. All drugs and investigational agents were tested over a range starting from a high concentration at or near the clinical Cmax and decreasing in half-log increments. If the clinical Cmax for an agent had not been determined, the highest concentration tested was 10 microM.
Cell Culture. All cells were maintained in an incubator at 37 degrees C and 5% CO2 with 95% humidity. The PDC lines were cultured according to standard operating procedures established by the NCI PDMR (https://pdmr.cancer.gov/sops/default.htm). All PDCs were thawed and cultured in Matrigel-coated flasks prepared with a working solution of 1X Ham's F-12 nutrient mix, without supplementation (Invitrogen, Waltham, MA, cat. 11765054), 100 U/mL penicillin-streptomycin (Invitrogen, cat. 15140122), and 2.5% Matrigel (Corning Inc., Corning, NY, cat. 354248) for the first three passages. The 354836-022-R-J1-PDC, 475296-252-R-J1-PDC, and 997726-040-R-J2-PDC lines were cultured in 6A media, which includes advanced DMEM/F-12 (Thermo Fisher Scientific, cat. 12634028), 10 mM HEPES (Thermo Fisher Scientific, cat. 15630080), 1X GlutaMAX supplement (Thermo Fisher Scientific, cat. 35050061), 0.1 mg/mL primocin (InvivoGen, San Diego, CA, cat. ant-pm-2), 10% defined fetal bovine serum, heat inactivated (HyClone Laboratories Inc., Logan, UT, cat. SH30070.03HI), 50% L-WRN conditioned media (ATCC, cat. CRL-3276), 1.25 mM N-Acetyl-L-cysteine (Sigma-Aldrich, cat. A9165), 10 mM nicotinamide (Sigma-Aldrich, cat. N0636), 1X B-27 supplement (Thermo Fisher Scientific, cat. 17504044), 1X N-2 supplement (Thermo Fisher Scientific, cat. 17502048), and 10 microM Y-27632 dihydrochloride (Tocris Bioscience, Bristol, United Kingdom, cat. 1254). The 624824-186-R-J2-PDC line was cultured in 6C/Colon 1B media, which includes all 6A media components plus 50 ng/mL human EGF recombinant protein (Thermo Fisher Scientific, cat. PHG0311). […]

[1] = second compound 0.0316 µM, first compound 0.0316 µM
[2] = second compound 0.0316 µM, first compound 0.1 µM
[3] = second compound 0.0316 µM, first compound 0.316 µM
[4] = second compound 0.0316 µM, first compound 1 µM
[5] = second compound 0.0316 µM, first compound 3.16 µM
[6] = second compound 0.0316 µM, first compound 10 µM
[7] = second compound 0.1 µM, first compound 0.0316 µM
[8] = second compound 0.1 µM, first compound 0.1 µM
[9] = second compound 0.1 µM, first compound 0.316 µM
[10] = second compound 0.1 µM, first compound 1 µM
[11] = second compound 0.1 µM, first compound 3.16 µM
[12] = second compound 0.1 µM, first compound 10 µM
[13] = second compound 0.316 µM, first compound 0.0316 µM
[14] = second compound 0.316 µM, first compound 0.1 µM
[15] = second compound 0.316 µM, first compound 0.316 µM
[16] = second compound 0.316 µM, first compound 1 µM
[17] = second compound 0.316 µM, first compound 3.16 µM
[18] = second compound 0.316 µM, first compound 10 µM
[19] = second compound 1 µM, first compound 0.0316 µM
[20] = second compound 1 µM, first compound 0.1 µM
[21] = second compound 1 µM, first compound 0.316 µM
[22] = second compound 1 µM, first compound 1 µM
[23] = second compound 1 µM, first compound 3.16 µM
[24] = second compound 1 µM, first compound 10 µM
[25] = second compound 3.16 µM, first compound 0.0316 µM
[26] = second compound 3.16 µM, first compound 0.1 µM
[27] = second compound 3.16 µM, first compound 0.316 µM
[28] = second compound 3.16 µM, first compound 1 µM
[29] = second compound 3.16 µM, first compound 3.16 µM
[30] = second compound 3.16 µM, first compound 10 µM
[31] = second compound 10 µM, first compound 0.0316 µM
[32] = second compound 10 µM, first compound 0.1 µM
[33] = second compound 10 µM, first compound 0.316 µM
[34] = second compound 10 µM, first compound 1 µM
[35] = second compound 10 µM, first compound 3.16 µM
[36] = second compound 10 µM, first compound 10 µM
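Also: spheroids exposed to agents for seven days before the viability read.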

## CCCS(=O)(=O)Nc1ccc(F)c(C(=O)c2c[nH]c3ncc(-c4ccc(Cl)cc4)cc23)c1F + Cc1nc(NC(=O)N2CCCC2C(N)=O)sc1-c1ccnc(C(C)(C)C(F)(F)F)c1
Second compound 0.0316 µM
  IC50: 6.08 µM
Second compound 0.1 µM
  IC50: 5.56 µM
Second compound 0.316 µM
  IC50: 5.31 µM
Second compound 1 µM
  IC50: 4.97 µM
Second compound 3.16 µM
  IC50: 3.43 µM
Second compound 10 µM
  IC50: < 0.0316 µM
[1]
  viability, T/C: 96.5%
[2]
  viability, T/C: 86.5%
[3]
  viability, T/C: 97.5%
[4]
  viability, T/C: 99.8%
[5]
  viability, T/C: 76.6%
[6]
  viability, T/C: 29.8%
[7]
  viability, T/C: 101%
[8]
  viability, T/C: 93.8%
[9]
  viability, T/C: 96.1%
[10]
  viability, T/C: 80.5%
[11]
  viability, T/C: 80.2%
[12]
  viability, T/C: 22.8%
[13]
  viability, T/C: 83.7%
[14]
  viability, T/C: 79.6%
[15]
  viability, T/C: 75.2%
[16]
  viability, T/C: 80%
[17]
  viability, T/C: 75.6%
[18]
  viability, T/C: 18.7%
[19]
  viability, T/C: 80.1%
[20]
  viability, T/C: 76.7%
[21]
  viability, T/C: 72%
[22]
  viability, T/C: 77%
[23]
  viability, T/C: 70.6%
[24]
  viability, T/C: 18%
[25]
  viability, T/C: 53.5%
[26]
  viability, T/C: 60.8%
[27]
  viability, T/C: 63.1%
[28]
  viability, T/C: 66.8%
[29]
  viability, T/C: 50.7%
[30]
  viability, T/C: 11.5%
[31]
  viability, T/C: 39.6%
[32]
  viability, T/C: 35.3%
[33]
  viability, T/C: 35.6%
[34]
  viability, T/C: 39.9%
[35]
  viability, T/C: 32%
[36]
  viability, T/C: 7.04%

## CC1(C)CCC(Nc2ncc(C(F)(F)F)c(-c3c[nH]c4c(P(C)(C)=O)c(C#N)ccc34)n2)CN1 (stereo unspecified) + CC(Nc1ccc2c(c1)OCCn1cc(N3C(=O)OCC3C(F)F)nc1-2)C(N)=O
Second compound 0.00316 µM
  IC50: < 0.0316 µM
Second compound 0.01 µM
  IC50: < 0.0316 µM
Second compound 0.0316 µM
  IC50: < 0.0316 µM
Second compound 0.1 µM
  IC50: < 0.0316 µM
Second compound 0.316 µM
  IC50: < 0.0316 µM
Second compound 1 µM
  IC50: < 0.0316 µM
Second compound 0.00316 µM, first compound 0.0316 µM
  viability, T/C: 21.5%
Second compound 0.00316 µM, first compound 0.1 µM
  viability, T/C: 18.9%
Second compound 0.00316 µM, first compound 0.316 µM
  viability, T/C: 21.4%
Second compound 0.00316 µM, first compound 1 µM
  viability, T/C: 22.9%
Second compound 0.00316 µM, first compound 3.16 µM
  viability, T/C: 32.5%
Second compound 0.00316 µM, first compound 10 µM
  viability, T/C: 2.76%
Second compound 0.01 µM, first compound 0.0316 µM
  viability, T/C: 28.1%
Second compound 0.01 µM, first compound 0.1 µM
  viability, T/C: 18.5%
Second compound 0.01 µM, first compound 0.316 µM
  viability, T/C: 27.8%
Second compound 0.01 µM, first compound 1 µM
  viability, T/C: 25.4%
Second compound 0.01 µM, first compound 3.16 µM
  viability, T/C: 32.9%
Second compound 0.01 µM, first compound 10 µM
  viability, T/C: 2.41%
[1]
  viability, T/C: 16.7%
[2]
  viability, T/C: 21.1%
[3]
  viability, T/C: 16.9%
[4]
  viability, T/C: 19%
[5]
  viability, T/C: 23.6%
[6]
  viability, T/C: 1.33%
[7]
  viability, T/C: 18.6%
[8]
  viability, T/C: 15.8%
[9]
  viability, T/C: 22.1%
[10]
  viability, T/C: 16.2%
[11]
  viability, T/C: 22.3%
[12]
  viability, T/C: 1.47%
[13]
  viability, T/C: 12.8%
[14]
  viability, T/C: 15.8%
[15]
  viability, T/C: 14.7%
[16]
  viability, T/C: 19.9%
[17]
  viability, T/C: 18.3%
[18]
  viability, T/C: 1.99%
[19]
  viability, T/C: 14.1%
[20]
  viability, T/C: 13%
[21]
  viability, T/C: 14.1%
[22]
  viability, T/C: 16.6%
[23]
  viability, T/C: 19.3%
[24]
  viability, T/C: 1.51%

## CNC(=O)c1ccc(N2C(=S)N(c3ccc(C#N)c(C(F)(F)F)c3)C(=O)C2(C)C)cc1F + CC(Nc1ncnc2nc[nH]c12)c1cc2cccc(Cl)c2c(=O)n1-c1ccccc1
Second compound 0.0316 µM
  IC50: > 10 µM
Second compound 0.1 µM
  IC50: > 10 µM
Second compound 0.316 µM
  IC50: > 10 µM
Second compound 1 µM
  IC50: > 10 µM
Second compound 3.16 µM
  IC50: > 10 µM
Second compound 10 µM
  IC50: > 10 µM
[1]
  viability, T/C: 97.4%
[2]
  viability, T/C: 99.1%
[3]
  viability, T/C: 92.9%
[4]
  viability, T/C: 93%
[5]
  viability, T/C: 109%
[6]
  viability, T/C: 95.8%
[7]
  viability, T/C: 95.2%
[8]
  viability, T/C: 113%
[9]
  viability, T/C: 109%
[10]
  viability, T/C: 104%
[11]
  viability, T/C: 94.4%
[12]
  viability, T/C: 93.8%
[13]
  viability, T/C: 100%
[14]
  viability, T/C: 97.8%
[15]
  viability, T/C: 97.6%
[16]
  viability, T/C: 109%
[17]
  viability, T/C: 105%
[18]
  viability, T/C: 91.5%
[19]
  viability, T/C: 97%
[20]
  viability, T/C: 92.4%
[21]
  viability, T/C: 95.9%
[22]
  viability, T/C: 117%
[23]
  viability, T/C: 93.6%
[24]
  viability, T/C: 95%
[25]
  viability, T/C: 105%
[26]
  viability, T/C: 106%
[27]
  viability, T/C: 105%
[28]
  viability, T/C: 108%
[29]
  viability, T/C: 85.2%
[30]
  viability, T/C: 95.5%
[31]
  viability, T/C: 89.3%
[32]
  viability, T/C: 86.5%
[33]
  viability, T/C: 94.5%
[34]
  viability, T/C: 97%
[35]
  viability, T/C: 95.3%
[36]
  viability, T/C: 86.6%
